Experiments:
[1] = Sensory evaluation in Japanese noodle soup base solution with potassium chloride (0.2 g) (Experimental Example 5); conditions: for off-taste suppressing effect: Japanese noodle soup base solution, potassium chloride 0.2 g; for intensity of off-tastes (bitter taste, metallic taste, harsh taste, astringent taste) derived from potassium chloride: base solution of Table 19
Description: Potassium chloride (0.2 g) was added to a commercially available Japanese noodle soup base (manufactured by Yamaki Co., Ltd.) (11.1 g), and dissolved by adding hot water (88.7 g) to prepare a base solution.
Each compound shown in the following Table 19 was added to the base solution prepared above so as to achieve the concentration (addition concentration) shown in the following Table 19 to prepare each evaluation sample.
(§1) Based on the following evaluation criteria, a panel of two experts determined by consensus the intensity of off-tastes (bitter taste, metallic taste, harsh taste, astringent taste) derived from potassium chloride in each evaluation sample, by reference to each potassium chloride aqueous solution adjusted to 0.2 wt %, 0.15 wt % or 0.1 wt %.

[2] = Sensory evaluation in BCAA sweetness aqueous solution (Experimental Example 6); set-up: key to off-taste suppressing effect: ±: no change from negative control; −: slightly suppressed compared to negative control; −−: suppressed compared to negative control (same level of intensity as BCAA sweetness aqueous solution in which total concentration of leucine, isoleucine, and valine (weight ratio=2:1:1) exceeds 0.8 wt % and is not more than 0.9 wt %); −−−: considerably suppressed compared to negative control (same level of intensity as BCAA sweetness aqueous solution in which total concentration of leucine, isoleucine, and valine (weight ratio=2:1:1) is not more than 0.8 wt %); conditions: for intensity of off-tastes (bitter taste, harsh taste) derived from amino acid (branched chain amino acid): summary of Table 20
Description: Each compound shown in the following Table 20 was added to an aqueous solution prepared by dissolving leucine (0.50 parts by weight), isoleucine (0.25 parts by weight), valine (0.25 parts by weight), and granulated sugar (4 parts by weight) in ion exchange water (95 parts by weight) (hereinafter at times referred to as BCAA sweetness aqueous solution) so as to achieve the concentration (addition concentration) shown in the following Table 20 to prepare each evaluation sample.
Based on the following evaluation criteria, a panel of four experts determined by consensus the intensity of off-tastes (bitter taste, harsh taste) derived from amino acid in each evaluation sample, by comparison with a BCAA sweetness aqueous solution without addition of any compound (negative control).

[3] = Sensory evaluation in chicken broth solution with potassium chloride (Experimental Example 3); conditions: chicken broth solution with 0.8 wt % potassium chloride
Description: As shown in the following (1) to (3) below, 0.8 wt % of potassium chloride was added to a food base powder corresponding to 0.5 wt % of sodium chloride to prepare each base solution having an off-taste derived from potassium chloride.
Potassium chloride (0.8 g) was added to a commercially available powdered chicken broth mix (manufactured by Ajinomoto Co., Inc., trade name “Marutorigara Soup”) (1.0 g), hot water (98.2 g) was added to dissolve the mixture to prepare a base solution (chicken broth soup solution).
Each compound shown in the following Tables 15 to 17 was added to each base solution (ramen noodle soup solution, chicken broth solution, potage solution) so as to achieve the concentration (addition concentration) shown in the following Tables 15 to 17 to prepare each evaluation sample.
By a method similar to that in Experimental Example 1, a panel of two experts determined the intensity of off-tastes (bitter taste, metallic taste, harsh taste, astringent taste) derived from potassium chloride in each evaluation sample.

[4] = Sensory evaluation in Japanese noodle soup base solution with potassium chloride (0.1 g) (Experimental Example 4); conditions: for off-taste suppressing effect: Japanese noodle soup base solution, potassium chloride 0.1 g; for intensity of off-tastes (bitter taste, metallic taste, harsh taste, astringent taste) derived from potassium chloride: base solution of Table 18
Description: Potassium chloride (0.1 g) was added to a commercially available Japanese noodle soup base (manufactured by Yamaki Co., Ltd.) (11.1 g), and dissolved by adding hot water ([…]) to prepare a base solution.
Each compound shown in the following Table 18 was added to the base solution prepared above so as to achieve the concentration (addition concentration) shown in the following Table 18 to prepare each evaluation sample.
as §1, with “0.1” for “0.2 wt %, 0.15”, “0.05” for “0.1”

[5] = addition concentration 1 weight ppb (0.1 weight ppm with respect to amino acid)
[6] = addition concentration 10 weight ppb (1 weight ppm with respect to amino acid)
[7] = addition concentration 50 weight ppb (5 weight ppm with respect to amino acid)
[8] = addition concentration 100 weight ppb (10 weight ppm with respect to amino acid)
[9] = addition concentration 10 ppb (1.25 weight ppm with respect to potassium chloride)
[10] = addition concentration 100 weight ppb (50 weight ppm with respect to potassium chloride)
[11] = addition concentration 1000 weight ppb (1000 weight ppm with respect to potassium chloride)
[12] = addition concentration 2000 weight ppb (2000 weight ppm with respect to potassium chloride)

| Structure (SMILES) | intensity of off-tastes (bitter taste, metallic taste, harsh taste, astringent taste) derived from potassium chloride [1] | off-taste suppressing effect [2, 5] | off-taste suppressing effect [2, 6] | off-taste suppressing effect [2, 7] | off-taste suppressing effect [2, 8] | intensity of off-tastes (bitter taste, harsh taste) derived from amino acid (branched chain amino acid) [2] | off-taste suppressing effect [3, 9] | off-taste suppressing effect [1, 10] | off-taste suppressing effect [4, 11] | off-taste suppressing effect [4, 12] | intensity of off-tastes (bitter taste, metallic taste, harsh taste, astringent taste) derived from potassium chloride [4] | further results |
| --- | --- | --- | --- | --- | --- | --- | --- | --- | --- | --- | --- | --- |
| CC1=C(O)C(=O)CC1 [cyclotene] | decreased | −− (suppressed compared to negative control (same level of intensity as BCAA sweetness aqueous solution in which total concentration of leucine, isoleucine, and valine (weight ratio=2:1:1) exceeds 0.8 wt % and is not more than 0.9 wt %)) | −− (suppressed compared to negative control (same level of intensity as BCAA sweetness aqueous solution in which total concentration of leucine, isoleucine, and valine (weight ratio=2:1:1) exceeds 0.8 wt % and is not more than 0.9 wt %)) | −− (suppressed compared to negative control (same level of intensity as BCAA sweetness aqueous solution in which total concentration of leucine, isoleucine, and valine (weight ratio=2:1:1) exceeds 0.8 wt % and is not more than 0.9 wt %)) | −− (suppressed compared to negative control (same level of intensity as BCAA sweetness aqueous solution in which total concentration of leucine, isoleucine, and valine (weight ratio=2:1:1) exceeds 0.8 wt % and is not more than 0.9 wt %)) | suppressed | +++ (intensity of the same level as potassium chloride aqueous solution with potassium chloride concentration of not less than 0.65 wt % and less than 0.7 wt %) |  |  |  |  | off-taste suppressing effect ([1]; addition concentration 25 weight ppb (12.5 weight ppm with respect to potassium chloride)): +++ (intensity of the same level as potassium chloride aqueous solution with potassium chloride concentration of less than 0.1 wt %) |
| CC(=O)c1ccco1 [2-acetylfuran] | decreased |  | − | −− (suppressed compared to negative control (same level of intensity as BCAA sweetness aqueous solution in which total concentration of leucine, isoleucine, and valine (weight ratio=2:1:1) exceeds 0.8 wt % and is not more than 0.9 wt %)) | −− (suppressed compared to negative control (same level of intensity as BCAA sweetness aqueous solution in which total concentration of leucine, isoleucine, and valine (weight ratio=2:1:1) exceeds 0.8 wt % and is not more than 0.9 wt %)) | suppressed |  | ++ (intensity of the same level as potassium chloride aqueous solution with potassium chloride concentration of not less than 0.1 wt % and less than 0.15 wt %) |  |  |  | off-taste suppressing effect ([2]; addition concentration 200 weight ppb (20 weight ppm with respect to amino acid)): −− (suppressed compared to negative control (same level of intensity as BCAA sweetness aqueous solution in which total concentration of leucine, isoleucine, and valine (weight ratio=2:1:1) exceeds 0.8 wt % and is not more than 0.9 wt %)); off-taste suppressing effect ([3]; addition concentration 100 ppb (12.5 weight ppm with respect to potassium chloride)): ++ (intensity of the same level as potassium chloride aqueous solution with potassium chloride concentration of not less than 0.7 wt % and less than 0.75 wt %) |
| O=Cc1ccco1 [furfural, Furfural] | decreased | − | −− (suppressed compared to negative control (same level of intensity as BCAA sweetness aqueous solution in which total concentration of leucine, isoleucine, and valine (weight ratio=2:1:1) exceeds 0.8 wt % and is not more than 0.9 wt %)) | −− (suppressed compared to negative control (same level of intensity as BCAA sweetness aqueous solution in which total concentration of leucine, isoleucine, and valine (weight ratio=2:1:1) exceeds 0.8 wt % and is not more than 0.9 wt %)) | −− (suppressed compared to negative control (same level of intensity as BCAA sweetness aqueous solution in which total concentration of leucine, isoleucine, and valine (weight ratio=2:1:1) exceeds 0.8 wt % and is not more than 0.9 wt %)) | suppressed | +++ (intensity of the same level as potassium chloride aqueous solution with potassium chloride concentration of not less than 0.65 wt % and less than 0.7 wt %) |  |  |  |  | off-taste suppressing effect ([1]; addition concentration 50 weight ppb (25 weight ppm with respect to potassium chloride)): +++ (intensity of the same level as potassium chloride aqueous solution with potassium chloride concentration of less than 0.1 wt %) |
| CCC(=O)O [propionic acid] | decreased |  |  |  | − | suppressed |  |  | + (intensity of the same level as potassium chloride aqueous solution with potassium chloride concentration of not less than 0.05 wt % and less than 0.1 wt %) | ++ (intensity of the same level as potassium chloride aqueous solution with potassium chloride concentration of less than 0.05 wt %) | decreased | off-taste suppressing effect ([1]; addition concentration 1000 weight ppb (500 weight ppm with respect to potassium chloride)): ++ (intensity of the same level as potassium chloride aqueous solution with potassium chloride concentration of not less than 0.1 wt % and less than 0.15 wt %); off-taste suppressing effect ([2]; addition concentration 500 weight ppb (50 weight ppm with respect to amino acid)): −− (suppressed compared to negative control (same level of intensity as BCAA sweetness aqueous solution in which total concentration of leucine, isoleucine, and valine (weight ratio=2:1:1) exceeds 0.8 wt % and is not more than 0.9 wt %)); off-taste suppressing effect ([2]; addition concentration 1000 weight ppb (100 weight ppm with respect to amino acid)): −− (suppressed compared to negative control (same level of intensity as BCAA sweetness aqueous solution in which total concentration of leucine, isoleucine, and valine (weight ratio=2:1:1) exceeds 0.8 wt % and is not more than 0.9 wt %)); off-taste suppressing effect ([2]; addition concentration 2000 weight ppb (200 weight ppm with respect to amino acid)): −− (suppressed compared to negative control (same level of intensity as BCAA sweetness aqueous solution in which total concentration of leucine, isoleucine, and valine (weight ratio=2:1:1) exceeds 0.8 wt % and is not more than 0.9 wt %)); off-taste suppressing effect ([3]; addition concentration 1 ppm (125 weight ppm with respect to potassium chloride)): +++ (intensity of the same level as potassium chloride aqueous solution with potassium chloride concentration of not less than 0.65 wt % and less than 0.7 wt %) |
| CC1OCCC1=O (stereo not shown) [2-methyltetrahydrofuran-3-one] | decreased |  |  |  |  |  |  | + (intensity of the same level as potassium chloride aqueous solution with potassium chloride concentration of not less than 0.15 wt % and less than 0.2 wt %) |  |  |  |  |
| CC(=O)c1ccc(C)o1 [2-acetyl-5-methylfuran] |  |  |  |  |  |  |  |  | + (intensity of the same level as potassium chloride aqueous solution with potassium chloride concentration of not less than 0.05 wt % and less than 0.1 wt %) | ++ (intensity of the same level as potassium chloride aqueous solution with potassium chloride concentration of less than 0.05 wt %) | decreased |  |

From patent publication US20220279826A1, “OFF-FLAVOR SUPPRESSING AGENT” (AJINOMOTO CO., INC., priority 2019, published 2022)
